Assay results reported in patent US8629169B2, “4-substituted-3-phenylsulfanylmethyl-bicyclo[3.1.0]hexane compounds as mGluR 2/3 antagonists” (Eli Lilly and Company, priority 2010, dated 2014).

Key:
[1] = test system: mice; experiment: mFST alone and in combination with SSRI; format: in vivo, mouse; settings: Example 12 10 mg/kg p.o.
[2] = target: T1, M2 muscarinic receptor (Homo sapiens, UniProt P08172); experiment: Off-target activity, known assay methods, M2
T1 sequence (P08172 1-466): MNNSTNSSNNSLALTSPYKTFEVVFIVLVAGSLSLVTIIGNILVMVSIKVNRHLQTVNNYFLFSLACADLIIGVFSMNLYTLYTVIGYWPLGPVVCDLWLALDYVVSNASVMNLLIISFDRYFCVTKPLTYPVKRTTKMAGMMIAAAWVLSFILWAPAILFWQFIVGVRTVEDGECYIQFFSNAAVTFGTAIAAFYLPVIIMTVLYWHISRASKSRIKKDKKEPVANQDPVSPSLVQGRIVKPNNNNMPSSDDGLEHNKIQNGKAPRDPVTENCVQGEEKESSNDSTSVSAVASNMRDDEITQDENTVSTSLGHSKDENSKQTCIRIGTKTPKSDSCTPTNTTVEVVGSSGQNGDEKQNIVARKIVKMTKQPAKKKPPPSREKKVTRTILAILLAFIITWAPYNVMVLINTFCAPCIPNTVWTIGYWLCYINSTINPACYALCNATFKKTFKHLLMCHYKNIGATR

[3] = test system: mGlu2+/+ and mGlu2−/− mice; experiment: mFST in mGlu2 knock-out mice and +/+ littermates; settings: 10 mg/kg, i.p., 30 min prior
Method: Briefly, male NIH-Swiss mice (Harlan Sprague-Dawley, Indianapolis, Ind.) weighing between 25-30 g are used. Group housed animals are removed from the vivarium to the testing area in their own cages and allowed to adapt to the new environment for at least 1 hour before testing. […] Mice are placed in a cylinder (diameter: 10 cm; height: 25 cm) filled with 6 cm of water (22-25° C.) for 6 min. The duration of immobility during the last 4 min. of the 6 min. period of the test was scored. A mouse is recorded as immobile when floating motionless or making only those movements necessary to keep its head above water.
In other experiments, mice with receptor deletions (mGlu2 knock-out mice) are studied; these mice are bred by heterozygote×heterozygote breeding and used as littermates for −/− and +/+ mouse comparisons (Taconic Farms).

[4] = target: T2, human mGlu6 receptor (Homo sapiens, UniProt O15303); experiment: mGlu6 cAMP antagonist assay (reference agonist L-AP4); format: cell-based; settings: cAMP format
T2 construct: expressed in transfected cells; host or cells: AV12 cells co-expressing rat EAAT1
T2 sequence (O15303 25-877): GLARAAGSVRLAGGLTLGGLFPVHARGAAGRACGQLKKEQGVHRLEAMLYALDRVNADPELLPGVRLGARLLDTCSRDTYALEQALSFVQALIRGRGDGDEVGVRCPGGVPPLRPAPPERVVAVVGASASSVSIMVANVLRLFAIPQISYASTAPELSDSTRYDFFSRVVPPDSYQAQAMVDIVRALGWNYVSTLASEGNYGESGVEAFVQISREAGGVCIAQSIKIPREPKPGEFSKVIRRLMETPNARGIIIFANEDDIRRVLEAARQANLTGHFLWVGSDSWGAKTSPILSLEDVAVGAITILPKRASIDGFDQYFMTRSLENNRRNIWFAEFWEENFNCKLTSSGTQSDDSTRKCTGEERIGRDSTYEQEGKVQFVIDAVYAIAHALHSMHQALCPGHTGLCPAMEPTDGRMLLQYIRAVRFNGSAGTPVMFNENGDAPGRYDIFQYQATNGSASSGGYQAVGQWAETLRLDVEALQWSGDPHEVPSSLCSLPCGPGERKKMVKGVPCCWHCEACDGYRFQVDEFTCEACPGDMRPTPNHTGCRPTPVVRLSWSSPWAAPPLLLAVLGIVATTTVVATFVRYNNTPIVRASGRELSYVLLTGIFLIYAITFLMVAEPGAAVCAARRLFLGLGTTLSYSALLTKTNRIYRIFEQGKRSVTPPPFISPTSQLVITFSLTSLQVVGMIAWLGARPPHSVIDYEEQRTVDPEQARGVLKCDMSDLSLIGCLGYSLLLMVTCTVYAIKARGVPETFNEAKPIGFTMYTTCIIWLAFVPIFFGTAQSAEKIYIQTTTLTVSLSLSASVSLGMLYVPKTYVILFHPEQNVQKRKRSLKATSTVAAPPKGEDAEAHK
Source text: (§1) The relative antagonist potencies of the compounds of the invention for the other human mGlu receptors can be assessed with either a cAMP assay or fluorometric calcium response assay (see for example Fell et al., JPET (in press)). Briefly, individual AV12 cell lines containing the rat EAAT1 glutamate transporter and stably expressing the human mGlu1, 2, 3, 4, 5, 6, & 8 receptors are used for these studies. The mGlu1 and 5 receptors are Gq-coupled, so they naturally signal through phospholipase C, producing a calcium flux response which can be used to measure receptor activation using a Fluorometric Imaging Plate Reader (FLIPR, Molecular Devices). The cell lines expressing the mGlu2, 3, 4, and 8 receptor are designed to express the Gα15 subunit so that these Gi-coupled receptors will generate a calcium flux response similar to the mGlu1 and 5 receptor expressing cell lines. The mGlu6 receptor is tested in a cAMP format using methods analogous to those developed for mGlu2 and mGlu3 above. […]
Antagonist activity in mGlu6 cells is measured using cAMP in a method analogous to that described above for mGlu2 and mGlu3 activity, except that the reference agonist was L-AP4 (Tocris). […] Relative IC50 and EC50 values are calculated from the top-bottom range of the concentration response curve using a four-parameter logistic curve fitting program (ActivityBase v5.3.1.22).

[5] = target: hERG channel (Homo sapiens, UniProt Q12809); experiment: Off-target activity, known assay methods, hERG
[6] = target: T3, human mGlu3 receptor (Homo sapiens, UniProt Q14832); experiment: mGlu3 receptor cAMP antagonist assay; format: cell-based; settings: reversal of DCG IV (EC90) inhibition of forskolin-stimulated cAMP; relative IC50
T3 construct: expressed in transfected cells; host or cells: AV12 cells co-expressing rat EAAT1
Method: Antagonist activity is assayed in recombinant AV12 cells stably expressing human mGlu2 or mGlu3 receptors and the rat glutamate transporter EAAT1 (Excitatory Amino Acid Transporter 1). The cell lines are maintained by culturing in DMEM with high glucose and pyridoxine hydrochloride supplemented with 5% dialyzed fetal bovine serum (FBS), 1 mM sodium pyruvate, 1 mM HEPES and 1 mM L-glutamine; geneticin and hygromycin B are used as selection antibiotics.
Reversal of the inhibition of forskolin-stimulated cAMP production by test compounds is measured using homogeneous time resolved fluorescence technology (HTRF; Cisbio cat #62AM4PEB). The medium is removed and the cells are incubated with 100 μl cAMP stimulation buffer (STIM) for 30 minutes at 37° C. […] Cells are incubated at 37° C. for 20 minutes. To measure the cAMP levels, cAMP-d2 conjugate and anti cAMP-cryptate conjugate in lysis buffer are incubated with the treated cells at room temperature for 1 hour (mGlu2) or 1.5 hour (mGlu3). […] The raw data are converted to cAMP amount (pmole/well) using a cAMP standard curve generated for each experiment. Relative IC50 values are calculated from the top-bottom range of the concentration response curve using a four-parameter logistic curve fitting program (ActivityBase v5.3.1.22).

[7] = target: T4, human mGlu1 receptor (Homo sapiens, UniProt Q13255); experiment: FLIPR calcium antagonist assay for mGlu receptor selectivity, mGlu1; format: cell-based; settings: inhibition of EC90 glutamate response, read-out: mGlu1 % inhib. @12.5 μM
T4 construct: expressed in transfected cells; host or cells: AV12 cells co-expressing rat EAAT1
T4 sequence (Q13255 19-1194): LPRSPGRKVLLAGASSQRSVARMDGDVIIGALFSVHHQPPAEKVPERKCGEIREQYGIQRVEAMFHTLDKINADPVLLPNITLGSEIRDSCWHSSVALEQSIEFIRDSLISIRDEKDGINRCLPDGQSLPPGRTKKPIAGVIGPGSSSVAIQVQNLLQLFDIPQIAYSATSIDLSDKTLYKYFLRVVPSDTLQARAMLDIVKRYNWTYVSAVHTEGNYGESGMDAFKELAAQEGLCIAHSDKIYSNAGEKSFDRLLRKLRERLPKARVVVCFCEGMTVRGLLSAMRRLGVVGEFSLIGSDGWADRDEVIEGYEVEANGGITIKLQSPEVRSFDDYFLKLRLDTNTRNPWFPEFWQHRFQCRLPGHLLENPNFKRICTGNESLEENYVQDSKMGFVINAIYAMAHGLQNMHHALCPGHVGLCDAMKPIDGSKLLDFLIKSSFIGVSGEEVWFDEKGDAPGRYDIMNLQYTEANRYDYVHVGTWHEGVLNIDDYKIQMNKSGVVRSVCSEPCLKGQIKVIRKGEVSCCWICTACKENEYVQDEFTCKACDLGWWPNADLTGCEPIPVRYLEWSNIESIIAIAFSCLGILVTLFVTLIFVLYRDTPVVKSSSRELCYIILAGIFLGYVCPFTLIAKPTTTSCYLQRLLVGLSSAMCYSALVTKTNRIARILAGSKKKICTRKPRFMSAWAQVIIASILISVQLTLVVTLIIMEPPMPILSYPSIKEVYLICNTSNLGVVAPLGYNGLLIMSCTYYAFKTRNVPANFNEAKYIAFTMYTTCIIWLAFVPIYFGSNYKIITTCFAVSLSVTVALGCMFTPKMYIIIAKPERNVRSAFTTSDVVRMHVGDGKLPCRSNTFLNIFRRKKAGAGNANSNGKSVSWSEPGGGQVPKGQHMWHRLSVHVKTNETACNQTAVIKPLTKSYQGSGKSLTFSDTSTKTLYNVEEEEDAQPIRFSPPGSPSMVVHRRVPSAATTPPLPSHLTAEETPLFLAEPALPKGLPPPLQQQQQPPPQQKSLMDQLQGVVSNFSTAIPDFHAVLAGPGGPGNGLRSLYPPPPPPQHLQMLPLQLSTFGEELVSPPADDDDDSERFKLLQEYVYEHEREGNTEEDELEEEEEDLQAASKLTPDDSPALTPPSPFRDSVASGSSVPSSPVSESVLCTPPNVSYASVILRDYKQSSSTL
Source text: as §1, with “Devices).” for “Devices). The cell lines expressing the mGlu2, 3, 4, and 8 receptor are designed to express the Gα15 subunit so that these Gi-coupled receptors will generate a calcium flux response similar to the mGlu1 and 5 receptor expressing cell lines. The mGlu6 receptor is tested in a cAMP format using methods analogous to those developed for mGlu2 and mGlu3 above.”
(§2) Intracellular calcium levels are monitored using FLIPR before and after the addition of test compounds and Fluo-3 AM (Invitrogen) or Calcium 4 (Molecular Devices) dye, depending on the cell line. […] The results are analyzed using GraphPad Prism v4.03 to calculate the concentrations of glutamate needed to induce the EC90 (antagonist assay) and EC10 (potentiator assay) responses.
(§3) Compounds are tested at each mGlu receptor in a two-addition FLIPR assay using a 10-point concentration response profile starting at a final concentration of 25 μM for the agonist assay and 12.5 μM for the potentiator and antagonist assays. […] Agonist effects are quantified as percent stimulation induced by compound alone relative to the maximal glutamate response. […]

[8] = target: T5, human mGlu5 receptor (Homo sapiens, UniProt P41594); experiment: FLIPR calcium antagonist assay for mGlu receptor selectivity, mGlu5; format: cell-based; settings: inhibition of EC90 glutamate response, read-out: mGlu5 % inhib. @12.5 μM
T5 construct: expressed in transfected cells; host or cells: AV12 cells co-expressing rat EAAT1
Source text: as §1, with “Devices).” for “Devices). The cell lines expressing the mGlu2, 3, 4, and 8 receptor are designed to express the Gα15 subunit so that these Gi-coupled receptors will generate a calcium flux response similar to the mGlu1 and 5 receptor expressing cell lines. The mGlu6 receptor is tested in a cAMP format using methods analogous to those developed for mGlu2 and mGlu3 above.”
as §2, §3

[9] = target: 5-HT2B serotonin receptor (Homo sapiens, UniProt P41595); experiment: Off-target activity, known assay methods, 5-HT2B
Sequence of 5-HT2B serotonin receptor (P41595 whole entry): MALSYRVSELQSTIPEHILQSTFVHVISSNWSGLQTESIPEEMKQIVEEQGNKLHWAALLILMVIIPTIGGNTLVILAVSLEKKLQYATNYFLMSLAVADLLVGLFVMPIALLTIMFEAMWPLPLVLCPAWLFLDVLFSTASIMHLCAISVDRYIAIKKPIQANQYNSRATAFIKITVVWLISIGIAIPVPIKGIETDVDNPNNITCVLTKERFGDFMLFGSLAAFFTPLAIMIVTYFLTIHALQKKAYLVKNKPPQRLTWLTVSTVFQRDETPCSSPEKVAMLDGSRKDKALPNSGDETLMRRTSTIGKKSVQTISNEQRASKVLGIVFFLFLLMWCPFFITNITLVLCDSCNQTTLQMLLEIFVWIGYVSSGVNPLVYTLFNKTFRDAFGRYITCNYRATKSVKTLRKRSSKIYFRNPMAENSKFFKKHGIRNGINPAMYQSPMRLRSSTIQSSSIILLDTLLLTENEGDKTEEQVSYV

[10] = target: T6, human mGlu8 receptor (Homo sapiens, UniProt O00222); experiment: FLIPR calcium antagonist assay for mGlu receptor selectivity, mGlu8; format: cell-based
T6 construct: expressed in transfected cells; host or cells: AV12 cells co-expressing rat EAAT1 and Galpha15
T6 sequence (O00222 34-908): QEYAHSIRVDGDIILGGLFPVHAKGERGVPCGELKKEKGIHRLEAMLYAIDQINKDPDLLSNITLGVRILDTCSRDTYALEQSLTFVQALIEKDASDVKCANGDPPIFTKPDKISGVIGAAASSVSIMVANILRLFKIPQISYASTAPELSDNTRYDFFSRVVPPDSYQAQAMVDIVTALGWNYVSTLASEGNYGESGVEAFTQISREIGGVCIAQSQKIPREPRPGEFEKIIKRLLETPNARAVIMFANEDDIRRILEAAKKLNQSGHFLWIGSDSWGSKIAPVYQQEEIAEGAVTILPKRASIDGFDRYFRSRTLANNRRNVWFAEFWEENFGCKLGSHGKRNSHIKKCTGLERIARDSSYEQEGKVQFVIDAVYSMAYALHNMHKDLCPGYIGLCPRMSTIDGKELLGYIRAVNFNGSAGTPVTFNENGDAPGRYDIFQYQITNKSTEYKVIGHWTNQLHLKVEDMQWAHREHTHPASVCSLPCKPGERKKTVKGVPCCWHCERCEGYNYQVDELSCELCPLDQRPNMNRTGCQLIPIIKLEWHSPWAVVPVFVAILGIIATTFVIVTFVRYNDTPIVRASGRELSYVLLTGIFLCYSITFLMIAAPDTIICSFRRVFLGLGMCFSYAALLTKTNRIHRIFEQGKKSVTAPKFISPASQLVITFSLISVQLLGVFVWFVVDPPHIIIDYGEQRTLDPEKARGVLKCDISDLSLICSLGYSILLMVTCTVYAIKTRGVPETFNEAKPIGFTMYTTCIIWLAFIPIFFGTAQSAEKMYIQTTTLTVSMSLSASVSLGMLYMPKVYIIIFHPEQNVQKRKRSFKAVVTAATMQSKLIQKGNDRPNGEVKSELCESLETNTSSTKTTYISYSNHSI
Source text: The relative antagonist potencies of the compounds of the invention for the other human mGlu receptors can be assessed with either a cAMP assay or fluorometric calcium response assay (see for example Fell et al., JPET (in press)). Briefly, individual AV12 cell lines containing the rat EAAT1 glutamate transporter and stably expressing the human mGlu1, 2, 3, 4, 5, 6, & 8 receptors are used for these studies. The mGlu1 and 5 receptors are Gq-coupled, so they naturally signal through phospholipase C, producing a calcium flux response which can be used to measure receptor activation using a Fluorometric Imaging Plate Reader (FLIPR, Molecular Devices). The cell lines expressing the mGlu2, 3, 4, and 8 receptor are designed to express the Gα15 subunit so that these Gi-coupled receptors will generate a calcium flux response similar to the mGlu1 and 5 receptor expressing cell lines. The mGlu6 receptor is tested in a cAMP format using methods analogous to those developed for mGlu2 and mGlu3 above. These cell lines are maintained as previously described except that amounts of L-glutamine and selection agents (geneticin, hygromycin B, zeocin, and blasticidin) may vary depending on the cell line. Confluent cultures are passaged biweekly.
Intracellular calcium levels are monitored using FLIPR before and after the addition of test compounds and Fluo-3 AM (Invitrogen) or Calcium 4 (Molecular Devices) dye, depending on the cell line. Cells are plated 24 hours prior to assay in a variable concentration of glutamine and a variable density of cells per well, depending on the cell line. The medium is removed and the cells are incubated with 8 μM of dye (50 μl per well) for 90 or 120 minutes (depending on cell line) at 25° C. […] The results are analyzed using GraphPad Prism v4.03 to calculate the concentrations of glutamate needed to induce the EC90 (antagonist assay) and EC10 (potentiator assay) responses.
Compounds are tested at each mGlu receptor in a two-addition FLIPR assay using a 10-point concentration response profile starting at a final concentration of 25 μM for the agonist assay and 12.5 μM for the potentiator and antagonist assays. […] Agonist effects are quantified as percent stimulation induced by compound alone relative to the maximal glutamate response. Antagonist effects are quantified by calculating the percent inhibition of the EC90 glutamate response caused by the compound. Potentiation effects are quantified as percent increase in the presence of an EC10 response in glutamate relative to the ECmax response. All data are calculated as relative IC50 or EC50 values using a four-parameter logistic curve fitting program (ActivityBase v5.3.1.22).

[11] = target: T7, human mGlu4 receptor (Homo sapiens, UniProt Q14833); experiment: FLIPR calcium antagonist assay for mGlu receptor selectivity, mGlu4; format: cell-based; settings: inhibition of EC90 glutamate response, read-out: mGlu4 % inhib. @12.5 μM
T7 construct: expressed in transfected cells; host or cells: AV12 cells co-expressing rat EAAT1 and Galpha15
T7 sequence (Q14833 33-912): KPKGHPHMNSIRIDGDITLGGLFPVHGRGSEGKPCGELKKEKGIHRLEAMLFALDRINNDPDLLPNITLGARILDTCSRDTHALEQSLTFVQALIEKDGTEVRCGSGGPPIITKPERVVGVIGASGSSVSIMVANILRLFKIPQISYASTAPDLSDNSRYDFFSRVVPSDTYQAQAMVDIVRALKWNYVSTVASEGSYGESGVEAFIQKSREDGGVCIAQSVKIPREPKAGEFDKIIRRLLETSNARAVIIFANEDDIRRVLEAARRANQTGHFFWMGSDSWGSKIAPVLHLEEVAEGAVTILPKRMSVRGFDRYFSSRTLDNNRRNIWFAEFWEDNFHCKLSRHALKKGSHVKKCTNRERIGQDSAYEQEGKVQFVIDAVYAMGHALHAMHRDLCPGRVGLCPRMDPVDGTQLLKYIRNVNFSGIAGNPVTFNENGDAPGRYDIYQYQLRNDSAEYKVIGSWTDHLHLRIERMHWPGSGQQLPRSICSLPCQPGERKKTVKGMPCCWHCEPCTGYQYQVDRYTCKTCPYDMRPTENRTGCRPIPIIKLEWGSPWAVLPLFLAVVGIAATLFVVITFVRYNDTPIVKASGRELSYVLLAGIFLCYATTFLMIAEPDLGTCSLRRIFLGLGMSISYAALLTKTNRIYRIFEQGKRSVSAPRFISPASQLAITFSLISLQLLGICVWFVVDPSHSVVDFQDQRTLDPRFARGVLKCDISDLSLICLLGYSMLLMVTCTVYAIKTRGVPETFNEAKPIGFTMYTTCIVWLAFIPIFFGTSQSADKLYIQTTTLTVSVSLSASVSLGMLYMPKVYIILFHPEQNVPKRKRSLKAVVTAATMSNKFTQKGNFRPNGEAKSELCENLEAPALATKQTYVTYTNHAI
Source text: as §1, with “Devices).” for “Devices). The cell lines expressing the mGlu2, 3, 4, and 8 receptor are designed to express the Gα15 subunit so that these Gi-coupled receptors will generate a calcium flux response similar to the mGlu1 and 5 receptor expressing cell lines. The mGlu6 receptor is tested in a cAMP format using methods analogous to those developed for mGlu2 and mGlu3 above.”
as §2, §3

[12] = target: 5-HT2A serotonin receptor (Homo sapiens, UniProt P28223); experiment: Off-target activity, known assay methods, 5-HT2A
Sequence of 5-HT2A serotonin receptor (P28223 whole entry): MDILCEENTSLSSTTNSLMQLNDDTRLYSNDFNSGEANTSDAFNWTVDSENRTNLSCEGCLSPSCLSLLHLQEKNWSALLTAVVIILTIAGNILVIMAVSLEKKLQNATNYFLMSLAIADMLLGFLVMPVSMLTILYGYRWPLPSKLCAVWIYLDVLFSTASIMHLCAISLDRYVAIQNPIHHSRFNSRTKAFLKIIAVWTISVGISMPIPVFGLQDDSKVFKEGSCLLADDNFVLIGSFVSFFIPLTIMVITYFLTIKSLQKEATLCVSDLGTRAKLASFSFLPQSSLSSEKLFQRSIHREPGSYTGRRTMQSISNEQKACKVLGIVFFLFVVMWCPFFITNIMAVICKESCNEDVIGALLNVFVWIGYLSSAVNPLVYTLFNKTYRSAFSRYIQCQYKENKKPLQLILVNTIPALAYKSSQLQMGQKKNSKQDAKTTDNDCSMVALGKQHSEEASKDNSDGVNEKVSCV

[13] = test system: male NIH-Swiss mice; experiment: Forced-swim test in mice (mFST); format: in vivo, mouse; settings: for ED60 (mg/kg): immobility, last 4 min of 6 min; for Maximal Decrease (1 − compound/control) * 100%: immobilization time
[14] = test system: wild type, mGlu2(−/−), mGlu3(−/−) and double knockout mice; experiment: Wakefulness in mGlu2 and/or mGlu3 receptor deletion mice; format: in vivo, mouse; settings: 10 mg/kg, i.p.
Source text: Additionally, in three separate experiments, mice with single mGlu2(−/−), single mGlu3(−/−), or double mGlu2(−/−) mGlu3(−/−) receptor deletions are studied.

[15] = target: iGluR5 (Homo sapiens, UniProt P39086); experiment: Off-target activity, known assay methods, iGluR5
[16] = citalopram experiment, citalopram 1 mg/kg i.p.
[17] = fluoxetine experiment, fluoxetine 10 mg/kg i.p.

## CN(C)CCCC1(c2ccc(F)cc2)OCc2cc(C#N)ccc21 (stereo not shown) [Citalopram, citalopram, reference compound]
[1]; [16]
  Immobilization Time: 102 s
  Maximal Decrease (1 − compound/control) * 100%: 42.1%

## Cl.N[C@]1(C(=O)O)[C@@H]2[C@@H](C(=O)O)[C@@H]2[C@H](O)[C@H]1CSc1ccc(F)c(F)c1 [Example 1, (1S,2R,3S,4S,5R,6R)-2-Amino-3-{[(3,4-difluorophenyl)sulfanyl]methyl}-4-hydroxybicyclo[3.1.0]hexane-2,6-dicarboxylic acid hydrochloride]
[2]
  activity at muscarinic receptor M2: no appreciable activity
[3]
  immobility time in mGlu2+/+ mice: significantly decrease immobility time
[4]
  IC50: 1.72 µM
[5]
  activity at the hERG channel: no appreciable activity
[6]
  IC50: 0.0062 ± 0.0022 µM
[7]
  inhibition at 12.5 µM: 6.3%
[8]
  inhibition at 12.5 µM: -2%
[9]
  activity at serotonin receptor 5-HT2B: no appreciable activity
[10]; 12.5 μM, inhibition of EC90 glutamate response, read-out: mGlu8 % inhib. @12.5 μM
  inhibition at 12.5 µM: 47%
[10]; FLIPR antagonist, in brackets under % inhib.
  IC50: 4.97 µM
[11]
  inhibition at 12.5 µM: 17.9%
[12]
  activity at serotonin receptor 5-HT2A: no appreciable activity
[13]; i.p.
  ED60 (mg/kg): 8.0 (i.p.) mg/kg
  Maximal Decrease (1 − compound/control) * 100%: 36.1%
[14]; double knockout
  wakefulness in double knockout mGlu2(−/−) mGlu3(−/−) mice: not significantly increase wakefulness
[14]; mGlu2(−/−), though at a reduced level
  wakefulness in single knockout mGlu2(−/−) mice: significantly increase wakefulness
[14]; mGlu3(−/−), though at a reduced level
  wakefulness in single knockout mGlu3(−/−) mice: significantly increase wakefulness
[14]; wild type
  wakefulness in wild type mice: significantly increase wakefulness
[15]
  activity at iGluR5: no appreciable activity

## CC(C)OC(=O)OCOC(=O)[C@H]1[C@@H]2[C@H](O)[C@@H](CSc3ccc(F)c(Cl)c3)[C@@](N)(C(=O)OCOC(=O)OC(C)C)[C@H]12.Cl [Example 22, Bis({[(1-methylethoxy)carbonyl]oxy}methyl) (1S,2R,3S,4S,5R,6R)-2-amino-3-{[(3-chloro-4-fluorophenyl)sulfanyl]methyl}-4-hydroxybicyclo[3.1.0]hexane-2,6-dicarboxylate hydrochloride]
[13]; p.o.
  ED60 (mg/kg): 20.5 (p.o.) mg/kg
  Maximal Decrease (1 − compound/control) * 100%: 50.1%

## CNCCC(Oc1ccc(C(F)(F)F)cc1)c1ccccc1 (stereo not shown) [Fluoxetine, fluoxetine, reference compound]
[1]; [17]
  Immobilization Time: 118 s
  Maximal Decrease (1 − compound/control) * 100%: 31.5%
